Patent US8440708B2, “Triazole-substituted arylamides as P2X3 and P2X2/3 antagonists” (Roche Palo Alto LLC, priority 2007, dated 2013)

Assays:
rat P2X3 receptor = target: T1, rat P2X3 receptor (Rattus norvegicus, UniProt P49654); experiment: P2X3/P2X2/3 FLIPR (Fluorometric Imaging Plate Reader) Assay, P2X3; format: cell-based; settings: CHO-K1 cells transfected with rat P2X3; agonist α,β-meATP 1 μM; Table 1; read-out: P2X3 pKi (converted)
T1 construct: expressed in transfected cells; host or cells: CHO-K1
T1 sequence (P49654 1-397): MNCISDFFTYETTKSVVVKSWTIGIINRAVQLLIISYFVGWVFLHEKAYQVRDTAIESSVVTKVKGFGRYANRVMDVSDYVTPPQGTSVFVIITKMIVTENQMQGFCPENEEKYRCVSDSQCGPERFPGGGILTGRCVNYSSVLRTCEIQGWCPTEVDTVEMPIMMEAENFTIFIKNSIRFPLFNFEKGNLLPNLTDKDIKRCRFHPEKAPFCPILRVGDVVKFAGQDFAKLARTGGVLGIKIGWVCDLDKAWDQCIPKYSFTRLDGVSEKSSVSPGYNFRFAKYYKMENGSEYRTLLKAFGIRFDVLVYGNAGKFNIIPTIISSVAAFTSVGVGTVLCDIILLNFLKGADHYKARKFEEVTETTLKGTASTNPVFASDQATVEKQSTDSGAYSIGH
Procedure, shortened: (§1)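 Inhibition curves came from nonlinear regression of peak fluorescence after α,β-meATP, given at 1 μM final for rat P2X3 and 5 μM for human P2X2/3. Compounds sat 20 min at room temperature on Fluo-3-loaded transfected CHO-K1 cells in HBSS/HEPES/2 mM CaCl2/probenecid buffer before agonist.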

human P2X2/3 receptor = target: T2, human P2X2/3 receptor (Homo sapiens, UniProt P56373+Q9UBL9); experiment: P2X3/P2X2/3 FLIPR (Fluorometric Imaging Plate Reader) Assay, P2X2/3; format: cell-based; settings: CHO-K1 cells transfected with human P2X2/3; agonist α,β-meATP 5 μM; Table 1; read-out: P2X2/3 pKi (converted)
T2 construct: expressed in transfected cells; host or cells: CHO-K1
T2 sequence (Q9UBL9 1-471): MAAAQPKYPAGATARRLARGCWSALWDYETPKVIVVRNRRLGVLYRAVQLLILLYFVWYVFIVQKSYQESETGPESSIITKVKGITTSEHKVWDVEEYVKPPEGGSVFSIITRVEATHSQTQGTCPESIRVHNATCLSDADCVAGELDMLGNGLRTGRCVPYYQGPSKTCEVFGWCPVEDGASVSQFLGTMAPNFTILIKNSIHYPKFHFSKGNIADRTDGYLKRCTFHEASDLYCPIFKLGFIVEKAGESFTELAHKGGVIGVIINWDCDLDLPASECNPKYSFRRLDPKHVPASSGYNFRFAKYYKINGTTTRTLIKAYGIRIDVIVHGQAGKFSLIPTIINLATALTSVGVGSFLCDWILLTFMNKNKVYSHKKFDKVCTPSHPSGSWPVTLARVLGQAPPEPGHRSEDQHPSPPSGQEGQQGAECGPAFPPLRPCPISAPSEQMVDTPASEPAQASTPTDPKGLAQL
T2 sequence (P56373 1-397): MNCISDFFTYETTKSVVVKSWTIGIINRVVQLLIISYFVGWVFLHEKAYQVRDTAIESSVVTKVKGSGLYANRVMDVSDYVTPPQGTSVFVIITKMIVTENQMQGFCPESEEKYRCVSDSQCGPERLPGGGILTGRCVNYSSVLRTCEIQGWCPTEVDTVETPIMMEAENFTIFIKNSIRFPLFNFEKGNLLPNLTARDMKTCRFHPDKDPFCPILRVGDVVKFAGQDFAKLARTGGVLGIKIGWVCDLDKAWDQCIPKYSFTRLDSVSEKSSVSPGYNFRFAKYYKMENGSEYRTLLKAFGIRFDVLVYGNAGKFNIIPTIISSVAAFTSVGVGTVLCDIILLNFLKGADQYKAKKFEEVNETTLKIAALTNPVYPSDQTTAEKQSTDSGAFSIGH
Procedure, shortened: as §1

| Ki (rat P2X3 receptor) | Ki (human P2X2/3 receptor) | SMILES |
| --- | --- | --- |
| 4.79 nM | 25.7 nM | Cc1ccc(-c2cc(C(=O)NCc3cnc(C)cn3)cc(-n3ncnc3C(C)C)c2)c(F)c1 [Compound 135, 2′-Fluoro-5-(5-isopropyl-[1,2,4]triazol-1-yl)-4′-methyl-biphenyl-3-carboxylic acid (5-methyl-pyrazin-2-ylmethyl)-amide] |
| 5.37 nM | 20.9 nM | Cc1ccc(-c2cc(C(=O)NCc3cnc(C)cn3)cc(-n3ncnc3C(C)C)c2)cc1 [Compound 136, 5-(5-Isopropyl-[1,2,4]triazol-1-yl)-4′-methyl-biphenyl-3-carboxylic acid (5-methyl-pyrazin-2-ylmethyl)-amide] |
| 11.5 nM | 398 nM | Cc1ccc(-c2cc(C(=O)NCc3cnc(C)cn3)cc(-c3ncnn3C(C)C)c2)cc1 [Compound 137, 5-(2-Isopropyl-2H-[1,2,4]triazol-3-yl)-4′-methyl-biphenyl-3-carboxylic acid (5-methyl-pyrazin-2-ylmethyl)-amide] |
| 724 nM | 4170 nM | COc1nnc(C(C)C)n1-c1cc(C(=O)NCc2cnc(C)cn2)cc(-c2ccc(C)cc2)c1 [Compound 138, 5-(3-Isopropyl-5-methoxy-[1,2,4]triazol-4-yl)-4′-methyl-biphenyl-3-carboxylic acid (5-methyl-pyrazin-2-ylmethyl)-amide] |
| 12.3 nM | 214 nM | Cc1ccc(-c2cc(C(=O)NCc3cnc(C)cn3)cc(-n3ncnc3C(C)N(C)C)c2)nc1 (stereo not shown) [Compound 141, 3-[5-(1-Dimethylamino-ethyl)-[1,2,4]triazol-1-yl]-N-(5-methyl-pyrazin-2-ylmethyl)-5-(5-methyl-pyridin-2-yl)-benzamide] |
| 20.9 nM | 1120 nM | Cc1ccc(-c2cc(C(=O)NCc3cnc(C)cn3)cc(-n3ncnc3-c3ccccc3)c2)nc1 [Compound 143, N-(5-Methyl-pyrazin-2-ylmethyl)-3-(5-methyl-pyridin-2-yl)-5-(5-phenyl-[1,2,4]triazol-1-yl)-benzamide] |
| 3.31 nM | 107 nM | Cc1ccc(-c2cc(C(=O)NCc3cnc(C)cn3)cc(-n3ncnc3CC(F)F)c2)nc1 [Compound 145, 3-[5-(2,2-Difluoro-ethyl)-[1,2,4]triazol-1-yl]-N-(5-methyl-pyrazin-2-ylmethyl)-5-(5-methyl-pyridin-2-yl)-benzamide] |
| 4.57 nM | 2450 nM | COCCc1ncnn1-c1cc(C(=O)NCc2cnc(C)cn2)cc(-c2ccc(C)cn2)c1 [Compound 147, 3-[5-(2-Methoxy-ethyl)-[1,2,4]triazol-1-yl]-N-(5-methyl-pyrazin-2-ylmethyl)-5-(5-methyl-pyridin-2-yl)-benzamide] |
| 20 nM | 7240 nM | CCOCCc1ncnn1-c1cc(C(=O)NCc2cnc(C)cn2)cc(-c2ccc(C)cn2)c1 [Compound 149, 3-[5-(2-Ethoxy-ethyl)-[1,2,4]triazol-1-yl]-N-(5-methyl-pyrazin-2-ylmethyl)-5-(5-methyl-pyridin-2-yl)-benzamide] |
| 676 nM | 7240 nM | Cc1ccc(-c2cc(C(=O)NCc3cnc(C)cn3)cc(-n3ncnc3C3CNC3)c2)nc1 [Compound 151, 3-(5-Azetidin-3-yl-[1,2,4]triazol-1-yl)-N-(5-methyl-pyrazin-2-ylmethyl)-5-(5-methyl-pyridine-2-yl)-benzamide] |
| 123 nM | 10000 nM | Cc1ccc(-c2cc(C(=O)NCc3cnc(C)cn3)cc(-n3ncnc3CC(C)(C)O)c2)nc1 [Compound 156, 3-[5-(2-Hydroxy-2-methyl-propyl)-[1,2,4]triazol-1-yl]-N-(5-methyl-pyrazin-2-ylmethyl)-5-(5-methyl-pyridin-2-yl)-benzamide] |
| 676 nM | 10000 nM | Cc1ccc(-c2cc(C(=O)NCc3cnc(C)cn3)cc(-n3ncnc3C3CN(C)C3)c2)nc1 [Compound 157, 3-[5-(1-Methyl-azetidin-3-yl)-[1,2,4]triazol-1-yl]-N-(5-methyl-pyrazin-2-ylmethyl)-5-(5-methyl-pyridin-2-yl)-benzamide] |
| 37.2 nM | 851 nM | Cc1cnc(CNC(=O)c2cc(-c3ccc(Cl)cn3)cc(-n3ncnc3C(C)N(C)C)c2)cn1 (stereo not shown) [Compound 158, 3-(5-Chloro-pyridin-2-yl)-5-[5-(1-dimethylamino-ethyl)-[1,2,4]triazol-1-yl]-N-(5-methyl-pyrazin-2-ylmethyl)-benzamide] |

The remaining lines, values behind:

| SMILES | Ki (rat P2X3 receptor) | Ki (human P2X2/3 receptor) |
| --- | --- | --- |
| Cc1ccc(-c2cc(C(=O)NC3CC3)cc(-n3ncnc3C(C)N(C)C)c2)nc1 (stereo not shown) [Compound 139, N-Cyclopropyl-3-[5-(1-dimethylamino-ethyl)-[1,2,4]triazol-1-yl]-5-(5-methyl-pyridin-2-yl)-benzamide] | 27.5 nM | 1700 nM |
| Cc1ccc(-c2cc(C(=O)N[C@@H](C)CO)cc(-n3ncnc3C(C)N(C)C)c2)nc1 (stereo partly drawn) [Compound 140, 3-[5-(1-Dimethylamino-ethyl)-[1,2,4]triazol-1-yl]-N-((S)-2-hydroxy-1-methyl-ethyl)-5-(5-methyl-pyridin-2-yl)-benzamide] | 20 nM | 2750 nM |
| Cc1ccc(-c2cc(C(=O)NC(C)c3cnccn3)cc(-n3ncnc3C(C)N(C)C)c2)nc1 (stereo not shown) [Compound 142, 3-[5-(1-Dimethylamino-ethyl)-[1,2,4]triazol-1-yl]-5-(5-methyl-pyridin-2-yl)-N-(1-pyrazin-2-yl-ethyl)-benzamide] | 9.12 nM | 229 nM |
| Cc1ccc(-c2cc(C(=O)N[C@@H](C)CO)cc(-n3ncnc3-c3ccccc3)c2)nc1 [Compound 144, N-((S)-2-Hydroxy-1-methyl-ethyl)-3-(5-methyl-pyridin-2-yl)-5-(5-phenyl-[1,2,4]triazol-1-yl)-benzamide] | 182 nM | 8910 nM |
| COCCc1ncnn1-c1cc(C(=O)N[C@@H](C)CO)cc(-c2ccc(C)cn2)c1 [Compound 148, N-((S)-2-Hydroxy-1-methyl-ethyl)-3-[5-(2-methoxy-ethyl)-1-[1,2,4]triazol-1-yl]-5-(5-methyl-pyridin-2-yl)-benzamide] | 60.3 nM | 10000 nM |
| CCOCCc1ncnn1-c1cc(C(=O)N[C@@H](C)CO)cc(-c2ccc(C)cn2)c1 [Compound 150, 3-[5-(2-Ethoxy-ethyl)-[1,2,4]triazol-1-yl]-N-((S)-2-hydroxy-1-methyl-ethyl)-5-(5-methyl-pyridin-2-yl)-benzamide] | 158 nM | 10000 nM |
| Cc1ccc(-c2cc(C(=O)NCc3ccc(C)nn3)cc(-n3ncnc3C3CCC3)c2)nc1 [Compound 152, 3-(5-Cyclobutyl-[1,2,4]triazol-1-yl)-N-(6-methyl-pyridazin-3-ylmethyl)-5-(5-methyl-pyridin-2-yl)-benzamide] | 5.75 nM | 23.4 nM |
| Cc1ccc(-c2cc(C(=O)NCc3ccc(=O)n(C)c3)cc(-n3ncnc3C(C)C)c2)nc1 [Compound 153, 3-(5-Isopropyl-[1,2,4]triazol-1-yl)-N-(1-methyl-6-oxo-1,6-dihydro-pyridin-3-ylmethyl)-5-(5-methyl-pyridin-2-yl)-benzamide] | 26.9 nM | 4370 nM |
| COCCc1nc(C)nn1-c1cc(C(=O)N[C@@H](C)CO)cc(-c2ccc(C)cn2)c1 [Compound 155, N-((S)-2-Hydroxy-1-methyl-ethyl)-3-[5-(2-methoxy-ethyl)-3-methyl-[1,2,4]triazol-1-yl]-5-(5-methyl-pyridin-2-yl)-benzamide] | 3310 nM | 10000 nM |
| Cc1ccc(-c2cc(C(=O)NCc3ccn(C)c(=O)c3)cc(-n3ncnc3C(C)C)c2)nc1 [Compound 159, 3-(5-Isopropyl-[1,2,4]triazol-1-yl)-N-(1-methyl-2-oxo-1,2-dihydro-pyridin-4-ylmethyl)-5-(5-methyl-pyridin-2-yl)-benzamide] | 2.95 nM | 26.3 nM |
